According to US20250044246A1, “NUCLEAR MAGNETIC RESONANCE METHODS OF DETERMINING HOMEOSTATIC PERTURBATIONS” (The United States of America, as represented by the …, priority 2021, published 2025):
Where “and” joins values, the source holds several entries; their conditions need not be identical. Equal values may be shown once. Entries after “also recorded” stand apart in the source; their conditions may differ.

Key:
[1] = system: viable "live" ex vivo neonatal mouse spinal cords; assay: Real-time SG diffusion and SG-DEXSY measurements on viable spinal cords (Example 3); type: cell-based
Description: MR measurements were performed on viable “live” ex vivo neonatal mouse spinal cords at 13.79 MHz with a low-field single-sided magnet (PM-10 NMR MOUSE, Magritek) (Eidmann, et al., Journal of Magnetic Resonance, Series A, 122(1): 104-109 (1996)) and custom-made RF probe and solenoid coil (see FIG. 29). Diffusion was encoded on sub-micron length scales and sub-millisecond timescales with spin echoes in the presence of a g=15.3 T/m static gradient (SG) (Williamson, et al., Proceedings of the 28th annual International Society of Magnetic Resonance in Medicine (ISMRM) (2020)). SG diffusion measurements (Williamson, et al., Elife, 8: p. e51101 (2019)) and SG diffusion exchange spectroscopy (DEXY)-based exchange rate and spin-lattice relaxation rate measurements (as in Williamson, et al., Journal of Magnetic Resonance, 317: 106782 (2020)), with b1+b2=4.5 ms/μm^2) were repeatedly acquired (11 minutes per set) to observe real-time changes. During measurements, samples were maintained in a constant circulation of artificial cerebrospinal fluid (ACF) and gas and at 25° C.

Na+/K+-ATPase = details: cited from earlier work
[2] = system: live ex vivo neonatal mouse spinal cords; assay: Real-time DEXSY NMR water exchange rate and R1 DW on live spinal cords (Example 1); type: cell-based; details: 100 μM ouabain
Description: (§1) All experiments were performed on Swiss Webster wild type (Taconic Biosciences, Rensselaer, NY, USA) mice between postnatal day 1 to 4. The mouse spinal cords were isolated and placed in a dissecting chamber perfused with cold low-calcium high magnesium artificial cerebrospinal fluid (aCSF, concentrations in mM: 128.35 NaCl, 4 KCl, 0.5 CaCl2·2H2O, 6 MgSO4·7H2O, 0.58 NaH2PO4·H2O, 21 NaHCO3, 30 D-glucose) bubbled with 95% O2 and 5% CO2). Live spinal cords were transported in low-calcium, high-magnesium aCSF to the NMR experimental apparatus. Fixed spinal cords were kept overnight in 4% paraformaldehyde at 4° C. and then stored in phosphate buffered saline (PBS) at 4° C., and washed with aCSF three times over the course of two days to remove any residual paraformaldehyde prior to experiments. Experiments on fixed and live spinal cords were performed using normal aCSF (same concentrations as the low-calcium high-magnesium solution except for 1.5 mM CaCl2·2H2O and 1 mM MgSO4·7H2O).
A PM 10 NMR MOUSE single-sided permanent magnet (Eidmann, et al., Journal of Magnetic Resonance, 122: 104-109 (1996)) (Magritek, Aachen Germany) and a Kea 2 spectrometer (Magritek, Wellington, New Zealand) were used to perform NMR experiments at B0=0.3239 T (proton ω0=13.79 MHz) and […]. A test chamber and RF probe were fabricated to maximize SNR and maintain live spinal cord viability.
Sample temperature was controlled by heat exchange with one of two circulating water baths (Accel 250 LC, Thermo Scientific, USA, and WCR-P6 Precision Regulated Bath Circulator, Daihan Scientific, Lennox Laboratory supplies, Ireland). […] Sample temperature was monitored by a fiber optic sensor (PicoM, Opsens Solutions Inc., Quebec, Canada). […]
Experimental protocols involved looping through sets of diffusion experiments and rapid DEXSY experiments to acquire repetitions of each. Noise and RF probe tuning were monitored at the beginning of each loop. […]
(§2) to estimate the restriction radius r and the restricted fraction f. Each estimate incorporated k measured from the rapid exchange experiment during the same set. […]

[3] = system: live ex vivo neonatal mouse spinal cords; assay: Static-gradient spin echo diffusion NMR (ADCy, restricted fraction f) on live spinal cords (Example 1); type: cell-based
Description: as §1
The same experimental conditions were used for live and fixed spinal cords. […]
Diffusion experiments were performed using a standard sequence involving a spin echo (SE) for diffusion encoding followed by a CPMG signal acquisition (Rata, et al., Journal of Magnetic Resonance, 180(2): 229-235 (2006). τ (defined as half the SE echo time) was varied linearly from 0.05 to 3.3 ms over 22 steps with 4 scans per τ. This corresponds to b-values ranging from 0.001 to 400 ms/μm^2 where b=2/3γ^2g^2τ^3 (Carr, et al., Physical Review, 94(3): 630 (954), Hahn, Physical Review, 80(4): 580 (1950)). Points two through four (τ=0.2048 to 0.5143 ms, b=0.096 to 1.5 ms/μm^2) of diffusion data were fit with I(b)=I0 exp(−b ADC) to estimate the Apparent Diffusion Coefficient and I0. For measurements on spinal cords, the term ADCy is used, acknowledging that diffusion may be anisotropic but was measured only in the y direction, perpendicular to the cord. […]
as §2

[4] = system: ex vivo neonatal mouse spinal cords; assay: Multiexponential analysis of DEXSY exchange time distribution P(τk) (Example 5); type: cell-based; details: 100 μM ouabain, 25° C., live tissue
Description: The probability distribution functions of the exchange time were measured, P(τk)=P(1/k) by applying multi exponential analysis using numerical inverse Laplace transforms (ILTs) to data in which the effect of exchange has been isolated. Using a low-field, static gradient system, P(τk) data were acquired from ex vivo neonatal mouse spinal cords in three conditions: fixed, live, and live whilst treated with ouabain, a sodium-potassium pump inhibitor.
The static gradient DEXSY (SG-DEXSY) pulse sequence was implemented on a PM-10 NMR MOUSE single-sided magnet at ω0=13.79 MHz, B0=0.3239 T, g=15.3 T/m with a home-built solenoid RF coil and test chamber. 90°/180° RF pulse lengths=2/2 μs, pulse powers=−22/−16 dB, TR=2 s, 8000 echo CPMG train with TE=25 μs, 8 points per echo, and 0.5 μs dwell time.
Live (i.e., viable) and fixed ex vivo neonatal (postnatal day 1-4) mouse spinal cords were studied. Spinal cords were bathed in artificial cerebrospinal fluid at 95% O2/5% CO2 and 25° C. For the ouabain treatment condition, ouabain was added at a saturating concentration of 100 μM.
Data were acquired at bs=4.5 ms/μm^2 over 69 values of tm=0.2-1000 ms. A biexponential fit to the log-ratio of signals was first performed to yield robust estimates of the intercept C0 and limit f∞/C1 (FIGS. 35A-35D). […]

organotypic CNS = details: after blocking Na+/K+ pump with ouabain; cited from earlier work
fixed spinal cords = assay: Osmolarity perturbation with sucrose, diffusion and DEXSY NMR on fixed spinal cords; design: species or system mouse
Description: as §1
Diffusion experiments were performed using a standard sequence involving a spin echo (SE) for diffusion encoding followed by a CPMG signal acquisition (Rata, et al., Journal of Magnetic Resonance, 180(2): 229-235 (2006). τ (defined as half the SE echo time) was varied linearly from 0.05 to 3.3 ms over 22 steps with 4 scans per τ. This corresponds to b-values ranging from 0.001 to 400 ms/μm^2 where b=2/3γ^2g^2τ^3 (Carr, et al., Physical Review, 94(3): 630 (954), Hahn, Physical Review, 80(4): 580 (1950)). Points two through four (τ=0.2048 to 0.5143 ms, b=0.096 to 1.5 ms/μm^2) of diffusion data were fit with I(b)=I0 exp(−b ADC) to estimate the Apparent Diffusion Coefficient and I0. For measurements on spinal cords, the term ADCy is used, acknowledging that diffusion may be anisotropic but was measured only in the y direction, perpendicular to the cord.
as §2

live spinal cords = assay: Osmolarity perturbation with sucrose, diffusion and DEXSY NMR on live spinal cords; type: cell-based, mouse; details: +300 mM sucrose, live samples
Description: as §1, with “MgSO4·7H2O). […]” for “MgSO4·7H2O).”
as §2

[5] = normal vs +300 mM sucrose, n=2 fixed samples

Cc1onc(O)c1CC(N)C(=O)O (stereo not drawn) [AMPA, α-amino-3-hydroxy-5-methyl-4-isoxazolepropionic acid]
effect on exchange rate ([1]; 5 μM and 10 μM AMPA, n=5): decreases; also recorded: causes exchange rate to decrease | reversibility of the effect on washout ([1]; AMPA washed out): recovers upon washout; also recorded: reversible | effect of a second dose on exchange rate ([1]; second dose of AMPA): less of an effect

C[C@@H]1O[C@@H](O[C@H]2C[C@@H](O)[C@]3(CO)[C@H]4[C@H](O)C[C@]5(C)[C@@H](C6=CC(=O)OC6)CC[C@]5(O)[C@@H]4CC[C@]3(O)C2)[C@H](O)[C@H](O)[C@H]1O [ouabain]
reduction of Na+/K+-ATPase activity (Na+/K+-ATPase; 100 μM ouabain): 65% | further increase of the effect on Na+/K+-ATPase activity (Na+/K+-ATPase; doses higher than 100 μM ouabain): 6% | time until ouabain took effect after treatment [2]: roughly 10 minutes | exchange rate k after ouabain addition ([2]; 25° C., n=3, mean (±SD), normal k=140 s^−1): 36 s⁻¹ and 36 ± 11 s⁻¹ | decrease of diffusion weighted spin-lattice relaxation rate R1 DW ([2]; n=3): 8±3% | exchange rate after completely blocking Na+/K+ pump ([1]; 100 μM ouabain): 50 s⁻¹ | mean apparent diffusion coefficient ([1]; 100 μM ouabain): increases | restricted volume ([1]; 100 μM ouabain): increases | spin lattice relaxation rate ([1]; 100 μM ouabain): decreases | time until effect after ouabain hits the sample ([1]; 100 μM ouabain): roughly 10 minutes | timescale from no effect to full effect ([1]; 100 μM ouabain): roughly 2 minutes | decrease in water exchange rate ([1]; 100 μM ouabain, n=3): 67% | increase in relative cell volume ([1]; 100 μM ouabain, n=3): 27% | dose dependence of effect on exchange rate ([1]; 1-10 μM vs 100 μM ouabain): dose-independent effect; also recorded: all-or-none fashion | exchange rate after partially blocking Na+/K+ pump ([1]; doses as low as 1 μM ouabain, after a delay): 50 s⁻¹ | normalized restricted volume ([1]; low (1-10 μM) doses of ouabain): not affected | time until effect after hitting the sample ([1]; low (1-10 μM) doses of ouabain, n=5): > 10 min | decrease of apparent diffusion coefficient ([3]; 100 μM ouabain, n=3): 9±1% | increase of restricted water fraction f ([3]; 100 μM ouabain, n=3): 22±6% | ADCy ([3]; ouabain-treated spinal cords, mean±SD, n=3, 25° C.): 0.954±0.045 μm^2/ms | faster peak of exchange time distribution P(τk) [4]: reduced | decrease of steady-state transmembrane water exchange rate (organotypic CNS): 50%

OC[C@H]1O[C@@](CO)(O[C@H]2O[C@H](CO)[C@@H](O)[C@H](O)[C@H]2O)[C@@H](O)[C@@H]1O [sucrose]
change of ADCy (fixed spinal cords; +300 mM sucrose, fixed samples): increases negligibly | change in exchange rate k (fixed spinal cords; [5]): no change | change in restricted fraction (fixed spinal cords; [5]): insignificant | exchange rate recovered to, in ouabain-treated state ([1]; 100 mM sucrose added in ouabain-treated state (5 μM ouabain, FIG. 21), from 50 s^−1): 150 s⁻¹ | effect on exchange rate in normal conditions ([1]; 100 mM sucrose, normal aCSF): small effect | change of ADCy (live spinal cords): increases ADCy significantly
